Measured values taken from US7074447B2 (Laboratories Miret, S.A., priority 2001, dated 2006).

Experiments:
Assay type in all cases: cell-based
[1] = tested on: Gram-Positive Bacteria, Gram-Negative Bacteria, Moulds and Yeasts; test: activity of LAE against listed microorganisms; settings: strains listed in b7
From the text: • Arthrobacter oxydans ATCC 8010 • Bacillus cereus var mycoide ATCC 11778 • Bacillus subtilis ATCC 6633 • Bacillus megaterium CECT 44 • Clostridium perfringens ATCC 77454 • Clostridium perfringens CECT 486 • Listeria monocytogenes ATCC 7644 • Staphylococcus aureus ATCC 6538 • Micrococcus luteus ATCC 9631 • Lactobacillus delbrueckii ssp lactis CECT 372 Gram-Negative Bacteria • Alcaligenes faecalis ATCC 8750 • Bordetella bronchiseptica ATCC 4617 • Citrobacter freundii ATCC 22636 • Citrobacter intermedium CECT 401 • Enterobacter aerogenes CECT 689 • Escherichia coli ATCC 8739 • Escherichia coli 0157H7 • Klebsiella pneumoniae var pneumoniae CECT 178 • Proteus mirabilis CECT 170 • Pseudomonas aeruginosa ATCC 9027 • Salmonella typhimurium ATCC16028 • Serratia marcenses CECT 274 • Mycobacterium phlei ATCC 41423 Moulds and Yeasts • Aspergillus niger ATCC14604 • Aureobasidium pullulans ATCC 9348 • Cladosporium cladosporioides ATCC 16022 • Gliocadium virens ATCC 4645 • Chaetonium globosum ATCC 6205 • Penicillium chrysogenum CECT 2802 • Penicillium funiculosum CECT 2914 • Penicillium camemberti CECT 2267 • Candida albicans ATCC 10231 • Rhodotorula rubra CECT 1158 • Saccharomyces cerevisiae ATCC 9763

[2] = tested on: Bacillus subtilis (CECT 356); test: minimum inhibition concentration and Kull synergy index of LAE / potassium sorbate; settings: for SI, synergy index: <1 synergism, 1 addition, >1 antagonism
Protocol: The invention is now explained by a number of examples. In these examples LAE and sorbate alone and in a number of different combinations have been investigated against a number of bacterial preparations. For the analysis usually an internal method was used. Conditions and medium were Mueller Hinton broth (pH 7.4) or (pH 5.0) for bacteria, Sabouraud broth (pH 5.8) for yeast and Sabouraud medium for moulds. […] The interaction of the two components of the antimicrobial mixture is calculated according to the method described by Kull et al. (Kull […]. and Mayer R. L., Applied Microbiology, 1961; 6:538-541). According to this method the so-called synergy index is calculated according to the following formula: Synergy index […]. […] All indicated symbols indicate a particular concentration leading to a particular end point, in this case the inhibition of growth of Bacillus subtilis, so that the selected end point is in fact the minimal inhibitory concentration (mic).

[3] = tested on: Enterobacter aerogenes (ATCC 13048); test: as above; settings: for SI, synergy index: <1 synergism, 1 addition, >1 antagonism
Protocol: (§1) The invention is now explained by a number of examples. In these examples LAE and sorbate alone and in a number of different combinations have been investigated against a number of bacterial preparations. For the analysis usually an internal method was used. Conditions and medium were Mueller Hinton broth (pH 7.4) or (pH 5.0) for bacteria, Sabouraud broth (pH 5.8) for yeast and Sabouraud medium for moulds. The interaction of the two components of the antimicrobial mixture is calculated according to the method described by Kull et al. (Kull […]. and Mayer R. L., Applied Microbiology, 1961; 6:538-541). According to this method the so-called synergy index is calculated according to the following formula: Synergy index […]. […] The same method was used as described for example 1. […] Again the effects of the components alone and in combination have been calculated using the same method as described at Example 1.

[4] = tested on: Candida albicans (ATCC 10231); test: as above; settings: for SI, synergy index: <1 synergism, 1 addition, >1 antagonism
Protocol: as §1, with “Conditions and medium were Mueller Hinton broth (pH 7.4) or (pH 5.0) for bacteria, Sabouraud broth (pH 5.8) for yeast and Sabouraud medium for moulds.” left out

[5] = tested on: Staphylococcus aureus (ATCC 6538); test: as above; settings: for SI, synergy index: <1 synergism, 1 addition, >1 antagonism
Protocol: (§2) The invention is now explained by a number of examples. In these examples LAE and sorbate alone and in a number of different combinations have been investigated against a number of bacterial preparations. For the analysis usually an internal method was used. Conditions and medium were Mueller Hinton broth (pH 7.4) or (pH 5.0) for bacteria, Sabouraud broth (pH 5.8) for yeast and Sabouraud medium for moulds. The interaction of the two components of the antimicrobial mixture is calculated according to the method described by Kull et al. (Kull […]. and Mayer R. L., Applied Microbiology, 1961; 6:538-541). According to this method the so-called synergy index is calculated according to the following formula: Synergy index […]. […] Again the effects of the components alone and in combination have been calculated using the same method as described at Example 1.

[6] = tested on: Bacillus megaterium (CECT 44); test: as above; settings: pH 7.4, aqueous solutions
Protocol: as §2

[7] = pH 7.4, propylene glycol solutions

Question: Which “activity against the listed microorganisms” value [1] does the source give for CCCCCCCCCCCC(=O)N[C@@H](CCCNC(=N)N)C(=O)OCC.Cl [LAE, L-arginine, N^α-lauroyl-ethylester monohydrochloride] here?
Answer: activity

Question: And the “QLAE, minimum inhibition concentration of LAE as single antimicrobial” value ([2]; pH 5.0)?
Answer: 29.3

Question: And the “Qlae, minimum inhibition concentration of LAE in the mixture” value ([2]; pH 5.0)?
Answer: 29.3

Question: What about the Qlae/QLAE ([2]; pH 5.0) of the same molecule?
Answer: 1.00

Question: What about the “Qs, minimum inhibition concentration of potassium sorbate in the mixture” value (from here on “Qs, minimum inhibition concentration”) ([2]; pH 5.0) of the same molecule?
Answer: 0

Question: What about the Qs/QS ([2]; pH 5.0) of the same molecule?
Answer: 0.00

Question: What about the “SI, synergy index” value ([2]; pH 5.0) of the same molecule?
Answer: 1.00

Question: What about the “QLAE, minimum inhibition concentration of LAE as single antimicrobial” value [2, 7] of the same molecule?
Answer: 12.8

Question: And the “Qlae, minimum inhibition concentration of LAE in the mixture” value [2, 7]?
Answer: 12.8

Question: And the Qlae/QLAE [2, 7]?
Answer: 1.00

Question: What about the “Qs, minimum inhibition concentration” value [2, 7] of the same molecule?
Answer: 0

Question: And the Qs/QS [2, 7]?
Answer: 0.00

Question: What about the “SI, synergy index” value [2, 7] of the same molecule?
Answer: 1.00

Question: What about the “QLAE, minimum inhibition concentration of LAE as single antimicrobial” value ([3]; pH 5.0) of the same molecule?
Answer: 21.5

Question: What about the “Qlae, minimum inhibition concentration of LAE in the mixture” value ([3]; pH 5.0) of the same molecule?
Answer: 21.5

Question: What about the Qlae/QLAE ([3]; pH 5.0) of the same molecule?
Answer: 1.00

Question: What about the “Qs, minimum inhibition concentration” value ([3]; pH 5.0) of the same molecule?
Answer: 0

Question: And the Qs/QS ([3]; pH 5.0)?
Answer: 0.00

Question: What about the “SI, synergy index” value ([3]; pH 5.0) of the same molecule?
Answer: 1.00

Question: What about the “Qlae, minimum inhibition concentration of LAE in the mixture” value ([3]; pH 7.4, aqueous solutions) of the same molecule?
Answer: 68.2

Question: What about the “Qs, minimum inhibition concentration” value ([3]; pH 7.4, aqueous solutions) of the same molecule?
Answer: 0

Question: And the Qs/QS ([3]; pH 7.4, aqueous solutions)?
Answer: 0.00

Question: And the “SI, synergy index” value ([3]; pH 7.4, aqueous solutions)?
Answer: 1.00

Question: And the “QLAE, minimum inhibition concentration of LAE as single antimicrobial” value ([4]; pH 5.0)?
Answer: 29.3

Question: And the “Qlae, minimum inhibition concentration of LAE in the mixture” value ([4]; pH 5.0)?
Answer: 29.3

Question: What about the Qlae/QLAE ([4]; pH 5.0) of the same molecule?
Answer: 1.00

Question: What about the “Qs, minimum inhibition concentration” value ([4]; pH 5.0) of the same molecule?
Answer: 0

Question: What about the Qs/QS ([4]; pH 5.0) of the same molecule?
Answer: 0.00

Question: What about the “SI, synergy index” value ([4]; pH 5.0) of the same molecule?
Answer: 1.00

Question: What about the “QLAE, minimum inhibition concentration of LAE as single antimicrobial” value ([4]; pH 7.4, aqueous solutions) of the same molecule?
Answer: 25.60

Question: And the “Qlae, minimum inhibition concentration of LAE in the mixture” value ([4]; pH 7.4, aqueous solutions)?
Answer: 25.60

Question: What about the Qlae/QLAE ([4]; pH 7.4, aqueous solutions) of the same molecule?
Answer: 1.00

Question: And the “Qs, minimum inhibition concentration” value ([4]; pH 7.4, aqueous solutions)?
Answer: 0.00

Question: What about the Qs/QS ([4]; pH 7.4, aqueous solutions) of the same molecule?
Answer: 0.00

Question: What about the “SI, synergy index” value ([4]; pH 7.4, aqueous solutions) of the same molecule?
Answer: 1.00

Question: What about the “QLAE, minimum inhibition concentration of LAE as single antimicrobial” value ([5]; pH 5.0) of the same molecule?
Answer: 29.3

Question: What about the “Qlae, minimum inhibition concentration of LAE in the mixture” value ([5]; pH 5.0) of the same molecule?
Answer: 29.3

Question: What about the Qlae/QLAE ([5]; pH 5.0) of the same molecule?
Answer: 1.00

Question: What about the “Qs, minimum inhibition concentration” value ([5]; pH 5.0) of the same molecule?
Answer: 0

Question: And the Qs/QS ([5]; pH 5.0)?
Answer: 0.00

Question: What about the “SI, synergy index” value ([5]; pH 5.0) of the same molecule?
Answer: 1.00

Question: And the “QLAE, minimum inhibition concentration of LAE as single antimicrobial” value ([5]; pH 7.4, aqueous solutions)?
Answer: 3.2

Question: And the “Qlae, minimum inhibition concentration of LAE in the mixture” value ([5]; pH 7.4, aqueous solutions)?
Answer: 3.2

Question: What about the Qlae/QLAE ([5]; pH 7.4, aqueous solutions) of the same molecule?
Answer: 1.0

Question: What about the “Qs, minimum inhibition concentration” value ([5]; pH 7.4, aqueous solutions) of the same molecule?
Answer: 0

Question: And the Qs/QS ([5]; pH 7.4, aqueous solutions)?
Answer: 0.00

Question: What about the “SI, synergy index” value ([5]; pH 7.4, aqueous solutions) of the same molecule?
Answer: 1.00

Question: And the “QLAE, minimum inhibition concentration of LAE as single antimicrobial” value [6]?
Answer: 6.4

Question: What about the “Qlae, minimum inhibition concentration of LAE in the mixture” value [6] of the same molecule?
Answer: 6.4

Question: What about the Qlae/QLAE [6] of the same molecule?
Answer: 1

Question: And the “Qs, minimum inhibition concentration” value [6]?
Answer: 0

Question: What about the Qs/QS [6] of the same molecule?
Answer: 0.00

Question: And the “SI, synergy index” value ([6]; <1 synergism, 1 addition, >1 antagonism)?
Answer: 1.00
